Measurements reported in ChEMBL document CHEMBL3885861, “Open TG-GATES”.

Species on record: Rattus norvegicus
Assay: Open TG-GATES - Regimen: Single
Format: toxicity, organism-based, Sprague-Dawley
Parameters: regimen Single, gender Male, age 6 weeks
Settings: in vivo, po, route gavage; for gamma-GTP / A/G / ALP / AST / BUN / CRE / Ca / Cl / DBIL / GLC / K / LDH / Na / PL / RALB / TBIL / TC / TG / ALT / IP / TP: tissue Plasma; for APTT / Bas / Eos / Fbg / Hb / Ht / Lym / MCH / MCHC / MCV / Mono / Neu / PT / Plat / RBC / Ret / WBC: tissue Blood; for KIDNEY_L / KIDNEY_R / KIDNEY_TOTAL: tissue Kidney; for LIVER: tissue Liver
[1] = 15 mg/kg, 3 h, dose level Middle
[2] = 15 mg/kg, 6 h, dose level Middle

COc1ccc2c(c1)c(CC(=O)O)c(C)n2C(=O)c1ccc(Cl)cc1 [INDOMETHACIN]
gamma-GTP (5 mg/kg, 9 h, dose level High): 2.6 IU/L | A/G (5 mg/kg, 9 h, dose level Low): 1.7 | ALP (5 mg/kg, 9 h, dose level Low): 793.6 IU/L | AST (5 mg/kg, 9 h, dose level Low): 72.6 IU/L | BUN (5 mg/kg, 9 h, dose level Low): 9.8 mg/dL | CRE (5 mg/kg, 9 h, dose level Low): 0.3 mg/dL | Ca (5 mg/kg, 9 h, dose level Low): 10.3 mg/dL | Cl (5 mg/kg, 9 h, dose level Low): 104 meq/L | DBIL (5 mg/kg, 9 h, dose level Low): 0.076 mg/dL | GLC (5 mg/kg, 9 h, dose level Low): 197.6 mg/dL | K (5 mg/kg, 9 h, dose level Low): 3.8 meq/L | LDH (5 mg/kg, 9 h, dose level Low): 194 IU/L | Na (5 mg/kg, 9 h, dose level Low): 141.4 meq/L | PL (5 mg/kg, 9 h, dose level Low): 137 mg/dL | RALB (5 mg/kg, 9 h, dose level Low): 3.3 g/dL | TBIL (5 mg/kg, 9 h, dose level Low): 0.1 mg/dL | TC (5 mg/kg, 9 h, dose level Low): 76.2 mg/dL | TG (5 mg/kg, 9 h, dose level Low): 31.8 mg/dL | gamma-GTP (5 mg/kg, 9 h, dose level Low): 1.2 IU/L | TERMINAL_BW (5 mg/kg, 24 h, dose level High): 211.4 g | TERMINAL_BW (5 mg/kg, 24 h, dose level Low): 236.2 g | APTT (5 mg/kg, 24 h, dose level High): 17.1 s | Bas (5 mg/kg, 24 h, dose level High): 0% | Eos (5 mg/kg, 24 h, dose level High): 0.8% | Fbg (5 mg/kg, 24 h, dose level High): 232.2 mg/dL | Hb (5 mg/kg, 24 h, dose level High): 13 g/dL | Ht (5 mg/kg, 24 h, dose level High): 39.2% | Lym (5 mg/kg, 24 h, dose level High): 78% | MCH (5 mg/kg, 24 h, dose level High): 21.9 pg | MCHC (5 mg/kg, 24 h, dose level High): 33.2% | MCV (5 mg/kg, 24 h, dose level High): 65.9 fL | Mono (5 mg/kg, 24 h, dose level High): 8.2% | Neu (5 mg/kg, 24 h, dose level High): 13.4% | PT (5 mg/kg, 24 h, dose level High): 12.2 s | Plat (5 mg/kg, 24 h, dose level High): 100.7 x10_4/uL | RBC (5 mg/kg, 24 h, dose level High): 595.4 x10_4/ul | Ret (5 mg/kg, 24 h, dose level High): 9.8% | WBC (5 mg/kg, 24 h, dose level High): 116.2 x10_2/uL | APTT (5 mg/kg, 24 h, dose level Low): 18.6 s | Bas (5 mg/kg, 24 h, dose level Low): 0.8% | Fbg (5 mg/kg, 24 h, dose level Low): 249.8 mg/dL | Hb (5 mg/kg, 24 h, dose level Low): 13.2 g/dL | Ht (5 mg/kg, 24 h, dose level Low): 38.2% | Lym (5 mg/kg, 24 h, dose level Low): 65.8% | MCH (5 mg/kg, 24 h, dose level Low): 21.3 pg | MCHC (5 mg/kg, 24 h, dose level Low): 34.5% | MCV (5 mg/kg, 24 h, dose level Low): 61.7 fL | Mono (5 mg/kg, 24 h, dose level Low): 3.2% | Neu (5 mg/kg, 24 h, dose level Low): 29.2% | PT (5 mg/kg, 24 h, dose level Low): 11.6 s | Plat (5 mg/kg, 24 h, dose level Low): 117.7 x10_4/uL | RBC (5 mg/kg, 24 h, dose level Low): 619.8 x10_4/ul | Ret (5 mg/kg, 24 h, dose level Low): 7.2% | WBC (5 mg/kg, 24 h, dose level Low): 111.3 x10_2/uL | KIDNEY_L (5 mg/kg, 24 h, dose level High): 1 g | KIDNEY_R (5 mg/kg, 24 h, dose level High): 1 g | KIDNEY_TOTAL (5 mg/kg, 24 h, dose level High): 1.9 g | KIDNEY_TOTAL (5 mg/kg, 24 h, dose level Low): 2.1 g | LIVER (5 mg/kg, 24 h, dose level High): 9.9 g | LIVER (5 mg/kg, 24 h, dose level Low): 11.3 g | A/G (5 mg/kg, 24 h, dose level High): 2 | ALP (5 mg/kg, 24 h, dose level High): 879 IU/L | ALT (5 mg/kg, 24 h, dose level High): 40.4 IU/L | AST (5 mg/kg, 24 h, dose level High): 70.2 IU/L | BUN (5 mg/kg, 24 h, dose level High): 15.4 mg/dL | CRE (5 mg/kg, 24 h, dose level High): 0.5 mg/dL | Ca (5 mg/kg, 24 h, dose level High): 10.4 mg/dL | Cl (5 mg/kg, 24 h, dose level High): 106.2 meq/L | DBIL (5 mg/kg, 24 h, dose level High): 0.006 mg/dL | GLC (5 mg/kg, 24 h, dose level High): 197.2 mg/dL | IP (5 mg/kg, 24 h, dose level High): 8.4 mg/dL | K (5 mg/kg, 24 h, dose level High): 4.9 meq/L | LDH (5 mg/kg, 24 h, dose level High): 146 IU/L | Na (5 mg/kg, 24 h, dose level High): 138.8 meq/L | PL (5 mg/kg, 24 h, dose level High): 133.4 mg/dL | RALB (5 mg/kg, 24 h, dose level High): 3.7 g/dL | TBIL (5 mg/kg, 24 h, dose level High): 0.3 mg/dL | TC (5 mg/kg, 24 h, dose level High): 77.4 mg/dL | TG (5 mg/kg, 24 h, dose level High): 65.2 mg/dL | TP (5 mg/kg, 24 h, dose level High): 5.6 g/dL | gamma-GTP (5 mg/kg, 24 h, dose level High): 1.4 IU/L | A/G (5 mg/kg, 24 h, dose level Low): 1.5 | ALP (5 mg/kg, 24 h, dose level Low): 830.8 IU/L | ALT (5 mg/kg, 24 h, dose level Low): 35.8 IU/L | AST (5 mg/kg, 24 h, dose level Low): 70 IU/L | BUN (5 mg/kg, 24 h, dose level Low): 13.2 mg/dL | CRE (5 mg/kg, 24 h, dose level Low): 0.4 mg/dL | Ca (5 mg/kg, 24 h, dose level Low): 10.7 mg/dL | Cl (5 mg/kg, 24 h, dose level Low): 103.2 meq/L | DBIL (5 mg/kg, 24 h, dose level Low): 0.06 mg/dL | GLC (5 mg/kg, 24 h, dose level Low): 189.4 mg/dL | IP (5 mg/kg, 24 h, dose level Low): 7.6 mg/dL | K (5 mg/kg, 24 h, dose level Low): 3.9 meq/L | LDH (5 mg/kg, 24 h, dose level Low): 234.2 IU/L | Na (5 mg/kg, 24 h, dose level Low): 141.6 meq/L | PL (5 mg/kg, 24 h, dose level Low): 144.6 mg/dL | RALB (5 mg/kg, 24 h, dose level Low): 3.3 g/dL | TBIL (5 mg/kg, 24 h, dose level Low): 0.1 mg/dL | TC (5 mg/kg, 24 h, dose level Low): 73.6 mg/dL | TG (5 mg/kg, 24 h, dose level Low): 82.8 mg/dL | TERMINAL_BW [1]: 223.8 g | APTT [1]: 19.8 s | Bas [1]: 0.6% | Eos [1]: 0.4% | Fbg [1]: 232.4 mg/dL | Hb [1]: 13.8 g/dL | Ht [1]: 37.8% | Lym [1]: 74.8% | MCH [1]: 22.8 pg | MCHC [1]: 36.5% | MCV [1]: 62.5 fL | Mono [1]: 3.4% | Neu [1]: 19.6% | PT [1]: 11.6 s | Plat [1]: 132.9 x10_4/uL | RBC [1]: 605.2 x10_4/ul | Ret [1]: 8.5% | WBC [1]: 104.8 x10_2/uL | KIDNEY_L [1]: 0.9 g | KIDNEY_R [1]: 0.9 g | KIDNEY_TOTAL [1]: 1.9 g | LIVER [1]: 10.3 g | A/G [1]: 1.5 | ALP [1]: 827 IU/L | ALT [1]: 36.2 IU/L | AST [1]: 73.6 IU/L | BUN [1]: 13 mg/dL | CRE [1]: 0.4 mg/dL | Ca [1]: 10.8 mg/dL | Cl [1]: 102.6 meq/L | DBIL [1]: 0.072 mg/dL | GLC [1]: 209.2 mg/dL | IP [1]: 9.8 mg/dL | K [1]: 4.1 meq/L | LDH [1]: 219.2 IU/L | Na [1]: 141.2 meq/L | PL [1]: 151.6 mg/dL | RALB [1]: 3.3 g/dL | TBIL [1]: 0.1 mg/dL | TC [1]: 84.8 mg/dL | TG [1]: 64.8 mg/dL | TP [1]: 5.5 g/dL | gamma-GTP [1]: 1 IU/L | TERMINAL_BW [2]: 220.7 g | APTT [2]: 19 s | Bas [2]: 0% | Eos [2]: 0.6% | Fbg [2]: 224 mg/dL
